{"source": "ChEMBL document CHEMBL3227967", "about": "“Quantitative structure-activity relationships in 1-aryl-2-(alkylamino)ethanol antimalarials” (J Med Chem, 1979)"}
{"test_system": "Plasmodium berghei", "test": "Antimalarial activity against Plasmodium berghei", "type": "functional"}
{"smiles": "CCCCN(CCCC)CC(O)c1c(Cl)cc(Cl)c2nc(-c3ccc(Cl)cc3)ccc12", "note": "(stereo unspecified)", "log(1/C)": 3.6}
{"smiles": "CCCCCN(CCCCC)CC(O)c1cc2ccc(Br)cc2c2cc(Br)ccc12", "note": "(stereo unspecified)", "log(1/C)": 3.72}
{"smiles": "CCCCCCN(CCCCCC)CC(O)c1cc(-c2ccc(Cl)c(Cl)c2)nc2ccc(OC)cc12", "note": "(stereo unspecified)", "log(1/C)": 3.35}
{"smiles": "CCN(CC)CC(O)c1cc(-c2ccc(OC)cc2)nc2cc(Cl)c(OC)cc12", "note": "(stereo unspecified)", "log(1/C)": 2.92}
{"smiles": "CCCCN(CCCC)CC(O)c1ccc(Cl)c2cc3cccc(Cl)c3cc12", "note": "(stereo unspecified)", "log(1/C)": 3.39}
{"smiles": "CCCCCCC[N+]([O-])(CCCCCCC)CC(O)c1cc2ccccc2c2cc(Br)ccc12", "note": "(stereo unspecified)", "log(1/C)": 3.43}
{"smiles": "CCCCN(CCCC)CC(O)c1cc(-c2ccc(Cl)cc2)nc(-c2ccc(C(F)(F)F)cc2)c1", "note": "(stereo unspecified)", "log(1/C)": 3.43}
{"smiles": "CCCCN(CCCC)CC(O)c1cc(-c2ccc(F)cc2)nc2c(Cl)cc(Cl)cc12", "note": "(stereo unspecified)", "log(1/C)": 3.98}
{"smiles": "CCCCN(CCCC)CC(O)c1cc(-c2ccc(Cl)cc2)nc2c(C(F)(F)F)cc(OC)cc12", "note": "(stereo unspecified)", "log(1/C)": 3.93}
{"smiles": "OC(CC1CCCCN1)c1cc2ccccc2c2cc(Br)ccc12", "note": "(stereo unspecified)", "log(1/C)": 3.49}
{"smiles": "CCCCN(CCCC)CC(O)c1cc2c(Cl)c(Cl)ccc2c2cc(C(F)(F)F)ccc12", "note": "(stereo unspecified)", "log(1/C)": 3.55}
{"smiles": "OC(CC1CCCCN1)c1cc(C(F)(F)F)nc2c(F)cccc12", "note": "(stereo unspecified)", "log(1/C)": 2.36}
{"smiles": "CCCCN(CCCC)CC(O)c1cc(C(F)(F)c2ccccc2)nc2c(Cl)cccc12", "note": "(stereo unspecified)", "log(1/C)": 2.46}
{"smiles": "OC(CC1CCCCN1)c1cc2cc(Cl)cc(Cl)c2c2cc(Cl)ccc12", "note": "(stereo unspecified)", "log(1/C)": 4.46}
{"smiles": "CCN(CC)CC(O)c1cc(-c2ccc(Cl)cc2)cc2ccccc12", "note": "(stereo unspecified)", "log(1/C)": 3.51}
{"smiles": "CCCCN(CCCC)CC(O)c1cc2c(Cl)cc(Cl)cc2c2ccsc12", "note": "(stereo unspecified)", "log(1/C)": 3.2}
{"smiles": "CCCCN(CCCC)CC(O)c1cc2c(Br)cccc2c2cc(Br)ccc12", "note": "(stereo unspecified)", "log(1/C)": 2.9}
{"smiles": "OC(CNC12CC3CC(CC(C3)C1)C2)c1cc(-c2ccc(Cl)cc2)nc2cc(Cl)ccc12", "note": "(stereo unspecified)", "log(1/C)": 3.24}
{"smiles": "OC(CC1CCCCN1)c1cc2c(Br)cc(Br)cc2c2cc(C(F)(F)F)ccc12", "note": "(stereo unspecified)", "log(1/C)": 4.2}
{"smiles": "CCCCCCCN(CCCCCCC)CC(O)c1cccc2cc3ccccc3cc12", "note": "(stereo unspecified)", "log(1/C)": 2.99}
{"smiles": "COc1ccc(-c2cc(C(O)CC3CCCCN3)c3cccc(C(F)(F)F)c3n2)cc1", "note": "(stereo unspecified)", "log(1/C)": 3.88}
{"smiles": "CCCN(CCC)CC(O)c1cc2c(Cl)cc(Cl)cc2c2cc(Cl)ccc12", "note": "(stereo unspecified)", "log(1/C)": 4.19}
{"smiles": "CCCCN(CCCC)CC(O)c1cc(C(=O)c2ccccc2)nc2c(Cl)cc(Cl)cc12", "note": "(stereo unspecified)", "log(1/C)": 3.03}
{"smiles": "CCCCN(CCCC)CC(O)c1cc2ccc(Br)cc2c2sccc12", "note": "(stereo unspecified)", "log(1/C)": 2.82}
{"smiles": "OC(CNC12CC3CC(CC(C3)C1)C2)c1cc(-c2ccc(Cl)cc2)nc(-c2ccc(Cl)cc2)c1", "note": "(stereo unspecified)", "log(1/C)": 3.23}
{"smiles": "CCCCCCN(CCCCCC)CC(O)c1cc(-c2ccc(Cl)cc2)nc2c(C)c(Cl)ccc12", "note": "(stereo unspecified)", "log(1/C)": 3.85}
{"smiles": "OC(CNC12CC3CC(CC(C3)C1)C2)c1cc(-c2ccc(Cl)cc2)nc2c(Cl)cc(Cl)cc12", "note": "(stereo unspecified)", "log(1/C)": 3.59}
{"smiles": "CCCCN(CCCC)CC(O)c1cc2c(Cl)cc(Cl)cc2c2sccc12", "note": "(stereo unspecified)", "log(1/C)": 3.28}
{"smiles": "NC(=O)c1cc(C(O)CC2CCCCN2)c2cccc(C(F)(F)F)c2n1", "note": "(stereo unspecified)", "log(1/C)": 2.42}
{"smiles": "CCN(Cc1cc(N)ccc1OC)CC(O)c1cc2ccccc2c2cc(Br)ccc12", "note": "(stereo unspecified)", "log(1/C)": 2.97}
{"smiles": "CCCCN(C)CC(O)c1cc(-c2ccc(Cl)cc2)nc(-c2ccc(Cl)cc2)c1", "note": "(stereo unspecified)", "log(1/C)": 3.59}
{"smiles": "CCCCCCCN(CCCCCCC)CC(O)c1cc(-c2ccc(F)cc2)nc(-c2ccc(F)cc2)c1", "note": "(stereo unspecified)", "log(1/C)": 2.55}
{"smiles": "CCCCCCCN(CCCCCCC)CC(O)c1cc2ccccc2c2ncccc12", "note": "(stereo unspecified)", "log(1/C)": 2.25}
{"smiles": "CCCCCCN(CCCCCC)CC(O)c1cccc2ccc3ccccc3c12", "note": "(stereo unspecified)", "log(1/C)": 2.2}
{"smiles": "CCCCCCN(CCCCCC)CC(O)c1cc(-c2ccc(Cl)c(Cl)c2)nc2cc(OC)ccc12", "note": "(stereo unspecified)", "log(1/C)": 3.1}
{"smiles": "CCCCN(CCCC)CC(O)c1cccc2ccc3ccccc3c12", "note": "(stereo unspecified)", "log(1/C)": 2.09}
{"smiles": "CCCCN(CCCC)CC(O)c1cc2c(Cl)cc(Cl)cc2c2cnccc12", "note": "(stereo unspecified)", "log(1/C)": 2.94}
{"smiles": "CNCC(O)c1cc2ccc(C(F)(F)F)cc2c2cc(C(F)(F)F)ccc12", "note": "(stereo unspecified)", "log(1/C)": 4.23}
{"smiles": "CCN(CC)CC(O)c1cc2cc(Cl)ccc2c2cc(Cl)ccc12", "note": "(stereo unspecified)", "log(1/C)": 4.06}
{"smiles": "CCCCCN(CCCCC)CC(O)c1cccc2c1ccc1ccccc12", "note": "(stereo unspecified)", "log(1/C)": 2.33}
{"smiles": "CCCCN(CCCC)CC(O)c1c(C)cnc2c1cc(Cl)c1ccccc12", "note": "(stereo unspecified)", "log(1/C)": 2.38}
{"smiles": "CCCCN(CCCC)CC(O)c1c(F)c(-c2ccc(Cl)cc2)nc2c(Cl)cc(Cl)cc12", "note": "(stereo unspecified)", "log(1/C)": 4.22}
{"smiles": "CCCCN(CCCC)CC(O)c1ccc(Cl)c2nc(-c3ccccc3)ccc12", "note": "(stereo unspecified)", "log(1/C)": 2.47}
{"smiles": "CCCCCCCN(CCCCCCC)CC(O)c1cccc2c3ccccc3c3ccccc3c12", "note": "(stereo unspecified)", "log(1/C)": 2.28}
{"smiles": "CCCCN(CCCC)CC(O)c1cc(-c2ccc(Cl)c(Cl)c2)nc2cc(OC)ccc12", "note": "(stereo unspecified)", "log(1/C)": 3.21}
{"smiles": "CCCCN(CCCC)CC(O)c1cc2cc(Cl)cc(Cl)c2nc1-c1ccc(Cl)cc1", "note": "(stereo unspecified)", "log(1/C)": 2.32}
{"smiles": "CCCCN(CCCC)CC(O)c1cc2ccc(C(F)(F)F)cc2c2sccc12", "note": "(stereo unspecified)", "log(1/C)": 2.98}
{"smiles": "CCCCCCCN(CCCCCCC)CC(O)c1c(OC)c2cc(Br)ccc2c2ccc(Br)cc12", "note": "(stereo unspecified)", "log(1/C)": 3.35}
{"smiles": "CCCCCCCN(CCCCCCC)CC(O)c1cc(-c2ccc(Cl)cc2)cc2ccccc12", "note": "(stereo unspecified)", "log(1/C)": 3.35}
{"smiles": "CCCCN(CCCC)CC(O)c1cc2ccsc2c2cc(Br)ccc12", "note": "(stereo unspecified)", "log(1/C)": 3.37}
{"smiles": "OC(CC1CCCCN1)c1cc2cc(C(F)(F)F)cc(C(F)(F)F)c2c2cc(Cl)c(Cl)cc12", "note": "(stereo unspecified)", "log(1/C)": 4.47}
{"smiles": "OC(CC1CCCCN1)c1cc(Oc2ccc(Cl)cc2)nc2ccccc12", "note": "(stereo unspecified)", "log(1/C)": 2.68}
{"smiles": "CCCCCCCN(CCCCCCC)CC(O)c1cc2c(Cl)cc(Cl)cc2c2sccc12", "note": "(stereo unspecified)", "log(1/C)": 2.89}
{"smiles": "CCCCN(CCCC)CC(O)c1cc(C23CC4CC(CC(C4)C2)C3)nc2c(C(F)(F)F)cccc12", "note": "(stereo unspecified)", "log(1/C)": 3.59}
{"smiles": "CCCCN(CCCC)CC(O)c1cc2cc(Cl)ccc2c2ccccc12", "note": "(stereo unspecified)", "log(1/C)": 3.01}
{"smiles": "Cc1ccc(-c2cc(C(O)CC3CCCCN3)c3cc(C)cc(C)c3n2)cc1", "note": "(stereo unspecified)", "log(1/C)": 3.11}
{"smiles": "CCCCCCCN(CCCCCCC)CC(O)c1cc2ccc(F)cc2c2ccccc12", "note": "(stereo unspecified)", "log(1/C)": 2.32}
{"smiles": "OC(CC1CCCCN1)c1cc(Oc2ccc(Cl)c(Cl)c2)nc2c(Cl)cc(Cl)cc12", "note": "(stereo unspecified)", "log(1/C)": 4.1}
{"smiles": "CCCN(CCC)CC(O)c1cc2cc(C(F)(F)F)cc(C(F)(F)F)c2c2ccccc12", "note": "(stereo unspecified)", "log(1/C)": 4.31}
{"smiles": "CCCCCCCN(CCCCCCC)CC(O)c1cc2cc(Cl)cc(Cl)c2nc1-c1ccc(Cl)cc1", "note": "(stereo unspecified)", "log(1/C)": 2.43}
{"smiles": "OC(CC1CCCCN1)c1cc2cc(Cl)c(Cl)cc2c2cc(C(F)(F)F)ccc12", "note": "(stereo unspecified)", "log(1/C)": 4.19}
{"smiles": "CCCCN(CCCC)CC(O)c1cc(-c2ccc(OC)c(OC)c2)nc2ccc(Cl)cc12", "note": "(stereo unspecified)", "log(1/C)": 3.33}
{"smiles": "CCCCN(CCCC)CC(O)c1ccc(Cl)c2ncccc12", "note": "(stereo unspecified)", "log(1/C)": 2.16}
{"smiles": "CCCCN(CCCC)CC(O)c1cc(-c2ccc(Cl)c(Cl)c2)cc2cc(Cl)c(OC)cc12", "note": "(stereo unspecified)", "log(1/C)": 3.06}
{"smiles": "CCCCN(CCCC)CC(O)c1cc2cc(Cl)cc(Cl)c2c2cc(SC)ccc12", "note": "(stereo unspecified)", "log(1/C)": 3.88}
{"smiles": "CCCCCCCN(CCCCCCC)CC(O)c1cccc2c1ccc1cc(Cl)c(Cl)cc12", "note": "(stereo unspecified)", "log(1/C)": 2.55}
{"smiles": "CCCCCCCN(CCCCCCC)CCC(O)c1cc2ccc(C(F)(F)F)cc2c2cc(C(F)(F)F)ccc12", "note": "(stereo unspecified)", "log(1/C)": 3.2}
{"smiles": "CCCN(CCC)CCC(O)c1cc2ccc(C(F)(F)F)cc2c2cc(C(F)(F)F)ccc12", "note": "(stereo unspecified)", "log(1/C)": 4.23}
{"smiles": "CCCCN(CCCC)CC(O)c1cc2cc(Cl)c(Cl)cc2c2c(Cl)cc(Cl)cc12", "note": "(stereo unspecified)", "log(1/C)": 4.18}
{"smiles": "CCCCCCN(CCCCCC)CC(O)c1cc(-c2ccc(OC)cc2)nc2c(Cl)cc(OC)cc12", "note": "(stereo unspecified)", "log(1/C)": 3.15}
{"smiles": "CCCCCCCN(CCCCCCC)CC(O)c1c(Br)c2ccccc2c2ccccc12", "note": "(stereo unspecified)", "log(1/C)": 3.33}
